The structures appear in SMILES notation.

The source of these data is US20240110220A1, “DETECTING BETA-LACTAMASE ENZYME ACTIVITY” (COMMISSARIAT A L'ENERGIE ATOMIQUE ET AUX ENERGIES …, priority 2021, published 2024).

The test is described as follows: Test strip by competition with hydrolysed cefotaxime added to the sample. The class given is binding. The following applies: signal equivalent to the control. The protocol:
The optimisation of these two parameters was carried out for the five antibodies selected. […] In parallel, hydrolysed cefotaxime was added in order to check that the antibody is indeed specific to the non-hydrolysed form.
For all these three parameters, a colour intensity scale was used to evaluate the results obtained on the test strips. This scale was defined from 1 to 10, where each value is characteristic of an increasing signal intensity.
96-well microplates were used for all these tests. […] Then, a strip composed of a sample paper, a nitrocellulose membrane and an absorbent paper, were deposited in the wells. An incubation of 10 minutes was performed, then the signal intensity was evaluated with the colour intensity scale.
A control was produced (condition at 0 ng/ml), in order to see the maximum signal that could be obtained on the TL (Table 4).
By way of example, other antibodies have been tested. The conditions of use of the antibodies are as follows: Antibody 1, DO0.5, 0.3 mg/ml of BSA-cefotaxime; Antibody 2, DO1, 0.3 mg/ml of BSA-cefotaxime; Antibody 3, DO0.5, 0.1 mg/ml of BSA-cefotaxime; Antibody 4, DO0.5, 0.3 mg/ml of BSA-cefotaxime; Antibody 5, DO0.5, 0.3 mg/ml of BSA-cefotaxime (Table 5).

Consider `CO/N=C(\C(=O)N[C@H](C(=O)O)C1NC(C(=O)O)=C(COC(C)=O)CS1)c1csc(N)n1` (stereo partly shown) [hydrolysed cefotaxime], for which the “recognition by the tracer antibody” value is “not recognised”.
